According to US20250249001A1, “METHODS OF TREATING SUBSTANCE USE DISORDER WITH 4-(3-CYANOPHENYL)-6-PYRIDINYLPYRIMIDINE MGLU5 NEGATIVE ALLOSTERIC MODULATORS” (Tempero Bio, Inc., priority 2022, published 2025):

System: voluntary home-cage alcohol drinking by Wistar rats
Assay: Home-cage two-bottle choice alcohol drinking, acute treatment
Assay type: in vivo
Description: Animals: Male Wistar rats (Charles River Laboratories, INC) were used in these studies. Rat housing and testing was conducted at the University of North Carolina at Chapel Hill (UNC-CH) School of Medicine in a state-of-the-art rodent vivarium approved by the Association for Assessment and Accreditation of Laboratory Animal Care International (AAALAC). Rat health was monitored daily by study investigators and veterinarians in the Division of Comparative Medicine UNC. All experimental procedures were carried out in accordance with the NIH Guide to Care and Use of Laboratory Animals (Committee for the Update of the Guide for the Care and Use of Laboratory Animals, 2011) and institutional guidelines.
Rats were housed individually in standard Plexiglas cages with standard rodent food and water available ad libitum. Upon arrival from the vendor, rats were given 7 days to acclimate to the vivarium during which they were weighed and handled by an investigator each day to monitor general health and habituate them to human contact. Rats were then weighed each day within 1-h of experimental procedures to calculate drug dosages relative to body weight. […] The colony was maintained at […] on a 12-hour light/dark cycle, with the lights on from 10 AM-10 PM. All behavioral experiments were conducted during the light portion of the light cycle.
Home-cage alcohol drinking method. Oral alcohol and water intake were examined using a two-bottle choice protocol, which is standard in the field and commonly used in our laboratory. Male Wistar rats (n=12) were first adapted to drinking from a 50 ml conical tube fitted with a standard stainless-steel ball bearing sipper tube that limits spillage. Then, two bottles were place on the cage daily. One bottle contained an alcohol solution and the other contained water. Bottles containing fresh solutions were weighed daily before and after a 24 hr access period. After drug treatment, bottles were weighed after 1 hr and 24 hrs of access. Each week, rats had 4-5 days of sweetened alcohol and water available and the remaining days only water.
Briefly, rats were first exposed to alcohol (10% v/v)+sucrose (5% w/v). versus water in the two bottles. Then, over a period of 6-weeks, the concentrations of alcohol and sucrose were gradually adjusted to alcohol (8% v/v)+sucrose (2% w/v) to achieve intake of pharmacologically relevant doses of alcohol. Rats were maintained at this concentration for the duration of the experiment for both acute (3.1.a) and chronic (3.1.b) home-cage drinking studies. Use of sweetened alcohol solutions in preclinical research provides face validity to the binge-intoxication stage of alcohol addiction in humans where sweeteners are commonly added to alcohol.
Compound 1 treatment. After establishing baseline intake of sweetened alcohol and water, rats were habituated to i.p. injections. All rats (N=12) were administered 3 habituation injections of vehicle (10% w/v kolliphor in BCD (10%)) prior to the Compound 1 dose response curve and alcohol intake was measured. Then, the Compound 1 dose response curve was conducted with dose order randomized according to a modified Latin-Square design. Rats were given a minimum of 1-2 days between injections to ensure normal drinking was re-established in absence of drug administration. Each dose of Compound 1 (0-10 mg/kg) was administered via i.p. injection and rats were placed back in the home-cage for 1 hr prior to the return of sweetened alcohol and water. Alcohol intake was measured after 1-h and 24-hrs of access in grams by weighing the drinking bottles. Data were excluded from 1 rat that emptied both bottles fully each day without drinking the solutions; thus, results are presented for a final group of N=11 rats.
Efficacy comparisons to MPEP and Naltrexone. […]

N#Cc1cc(Cl)cc(-c2cc(-c3ccc(F)cn3)ncn2)c1 [Compound 1, 3-chloro-5-[6-(5-fluoropyridin-2-yl)pyrimidin-4-yl]benzonitrile]
alcohol intake after 24-hrs of access vs vehicle (10 mg/kg i.p. acute): did not achieve statistical significance
dosage giving the greatest reduction in EtOH intake (1-hr access, dose range 0-10 mg/kg i.p.): 3 mg/kg
alcohol intake (EtOH g/kg/1-h) after 1-hr access vs vehicle control (Compound 1 1, 3, and 10 mg/kg i.p. acute, 1 hr before access, sweetened alcohol, N=11): significantly decreased alcohol intake
alcohol intake after 24-hrs of access vs vehicle (Compound 1 1 and 3 mg/kg i.p. acute): significantly decreased alcohol intake
alcohol intake at the 24-hr measurement interval, comparison of equivalent doses (each drug 3 mg/kg i.p. acute): maintained efficacy
alcohol drinking at 1-hr of access vs vehicle control, positive control comparison (each drug 3 mg/kg i.p. acute, N=11): significantly decreased alcohol drinking
